Experiments:
[1] = system: Spontaneously hypertensive rats; experiment: Antihypertensive activity: systolic blood pressure by tail cuff method; assay type: in vivo; conditions: for active in test 1. (Antihypertensive Activity): result in words, no dose given; for b.p. lower/dose: systolic blood pressure, spontaneously hypertensive rats
Procedure: Systolic blood pressures were recorded by a modification of the tail cuff method described by I.M. Claxton, M.G. Palfreyman, R.H. Poyser, R.L. Whiting, European Journal of Pharmacology, 37, 179 (1976). A W+W BP recorder, model 8005 was used to display pulses. Prior to all measurements rats were placed in a heated environment (33.5 ± 0.5 °C) before transfer to a restraining cage. Each determination of blood pressure was the mean of at least 5 readings. Spontaneously hypertensive rats (ages 12-18 weeks) with systolic blood pressures >180 mmHg were considered hypertensive.

trachea = experiment: Bronchodilator activity: relaxation of isolated tracheal spirals, relative to isoprenaline maximum; assay type: cell-based, guinea pigs; conditions: result in words; no value given
Procedure: Male guinea pigs (300-600g) were stunned by a blow to the head and bled from the carotid artery. The trachea was exposed, dissected free of connective tissue, and transferred to oxygenated Krebs solution at 37 °C. Next, spirals (2 per trachea) were prepared by cutting the whole trachea spirally along its longitudinal axis and then dividing this spiral lengthwise. Each preparation was mounted, using silk thread, in a 10ml organ bath filled with Krebs solution at 37 °C and bubbled with 5% CO₂ with O₂. The resting tension of the preparations was set at 2g and changes in muscle tension were monitored isometrically by means of a UFI (2oz) force and displacement transducer (Ormed Ltd) connected to a Linseis pen recorder. All preparations were allowed to equilibrate for 60 minutes. During this equilibration period the preparations were washed by upward displacement at 15 minute intervals and, if necessary, the resting tension was readjusted to 2g using a mechanical micromanipulator system.
Once a steady resting tension had been obtained, the preparations were dosed simultaneously with the test compound (10⁻⁸-2x10⁻⁵M), and finally a maximum relaxation achieved by addition of 10⁻³M isoprenaline. The fall in tension evoked by the test compound was expressed as a percentage of the total relaxation evoked in the presence of 10⁻³ isoprenaline. […]

| Structure (SMILES) | active in test 1. (Antihypertensive Activity) [1] | active in test 2. (Bronchodilator Activity) (trachea) | b.p. lower/dose ([1]; dose 0.15mgkg⁻¹) | b.p. lower/dose ([1]; dose 0.3mgkg⁻¹) |
| --- | --- | --- | --- | --- |
| CC1(C)Oc2ccc(C#N)cc2[C@@H](Nc2cc(N)ncn2)[C@@H]1O (racemic) [Example 3] | active | active | – | – |
| CNc1cc(N[C@@H]2c3cc(C#N)ccc3OC(C)(C)[C@H]2O)ncn1 (racemic) [Example 2] | active | active | – | – |
| CC1(C)Oc2ccc(C#N)cc2[C@@H](Nc2cc(Cl)ncn2)[C@@H]1O (racemic) [El, Trans-6-cyano-4-[(6-chloropyrimidin-4-yl)amino]-3,4-dihydro-2,2-dimethyl-2H-1-benzopyran-3-ol] | – | – | 38%/0.15mgkg⁻¹ | 36%/0.3mgkg⁻¹ |
